Results as given in patent US20230355597A1, “COMPOUNDS, COMPOSITIONS, AND METHODS FOR THE TREATMENT AND PREVENTION OF AVIAN PATHOGENIC E. COLI (APEC)” (OHIO STATE INNOVATION FOUNDATION, priority 2018, published 2023).

Experiments:
AI-2 activity of APEC O1 = assay: AI-2 bioluminescence indicator assay (V. harveyi BB170); conditions: for Inhibition % of AI-2 activity: APEC O1, 100 µM
[1] = tested on: AI-2 activity of APEC O115; assay: as above; conditions: APEC O115, 100 µM
[2] = tested on: AI-2 activity of APEC O78; assay: as above; conditions: for Inhibition % of AI-2 activity: APEC O78, 100 µM
AI-2 activity of APEC O8 = assay: as above; conditions: for Inhibition % of AI-2 activity: APEC O8, 100 µM
[3] = tested on: AI-2 activity of APEC O35; assay: as above; conditions: APEC O35, 100 µM
[4] = tested on: AI-2 activity of APEC O15; assay: as above; conditions: APEC O15, 100 µM
[5] = tested on: AI-2 activity of APEC O18; assay: as above; conditions: for Inhibition % of AI-2 activity: APEC O18, 100 µM
Caco-2 cells = assay: LDH assay of AI-2 inhibitors; conditions: Caco-2, 100 µM, 24 h
[6] = tested on: AI-2 activity of APEC O109; assay: AI-2 bioluminescence indicator assay (V. harveyi BB170)
[7] = tested on: QS and virulence associated genes of APEC O78; assay: qRT-PCR of QS-regulated and virulence factors genes; assay type: cell-based, avian pathogenic Escherichia coli (APEC); conditions: 100 µM, 10 h
Procedure: Quantitative real-time reverse transcription PCR (qRT-PCR). […] APEC O78 was grown in the presence of 100 µM of each compound in a 96-well plate at 37° C. for 10 h. APEC O78 culture treated with 1 µL of 100% DMSO was used as […]. Total RNA was extracted from duplicate wells for each compound (200 µL) using a miRNeasy Mini Kit (Qiagen). RNA quality and quantity was determined by nanodrop 2000 C spectrophotometer (Thermo scientific). Traces of DNA was removed using Genomic DNA removal mix (Qiagen). Approximately, 5 µg of purified RNA was used to synthesize cDNA using the Qiagen RT^2 First Strand Kit (Qiagen). The qRT-PCR was performed using SensiMix™ SYBER® Hi-Rox qPCR Master Mix (Bioline) according to manufacturer instructions in a realplex^2 mastercycler (Eppendorf) with 55° C. annealing temperature. Gene-specific primers were designed using PrimerQuest Tool and obtained from integrated DNA technologies (IDT). The data were normalized to the house-keeping gene, glyceraldehyde-3-phosphate dehydrogenase (GAPDH). The relative fold change was calculated using the ΔΔCt method. Three independent experiments were conducted.

AI-2 activity of APEC O2 = assay: AI-2 bioluminescence indicator assay (V. harveyi BB170); conditions: for Inhibition % of AI-2 activity: APEC O2, 100 µM
Rif^r APEC O78 [8] = assay: In vivo screening of quorum sensing inhibitors in APEC infected broiler chickens; conditions: for reduction in chicken mortality: DMSO control mortality normalized to 100%; for average lesion score reduction: heart, lung and airsac, vs DMSO; for Mortality rate (%): oral gavage once a day, day 4 to day 8, DMSO control 66.7%; for Reduction in APEC lesions severity, Air-sacs (%) / Reduction in APEC lesions severity, Heart (%) / Reduction in APEC lesions severity, Liver (%) / Reduction in APEC lesions severity, Lung (%): vs DMSO treated control
Rif^r APEC O78 [9] = assay: Wax moth (Galleria mellonella) larva infection model (AI-2 inhibitors); conditions: for larval death: 48 h post treatment
APEC O2 in HD-11 cells = assay: Intracellular survival assay (AI-2 inhibitors); conditions: O2, HD-11, 100 µM, 6 h
[10] = Escherichia coli, read-out: Inhibition % of AI-2 activity

Structure (SMILES) | Inhibition % of AI-2 activity (AI-2 activity of APEC O1) | Inhibition % of AI-2 activity [1] | Inhibition % of AI-2 activity [2] | Inhibition % of AI-2 activity (AI-2 activity of APEC O8) | Inhibition % of AI-2 activity [3] | Inhibition % of AI-2 activity [4] | Inhibition % of AI-2 activity [5] | toxicity (LDH) (Caco-2 cells) | expression of cheW [7] | expression of csrA [7] | Inhibition % of AI-2 activity (AI-2 activity of APEC O2) | reduction in chicken mortality (Rif^r APEC O78 [8]) | average lesion score reduction (Rif^r APEC O78 [8]; liver) | Mortality rate (%) (Rif^r APEC O78 [8]) | Reduction in APEC lesions severity, Air-sacs (%) (Rif^r APEC O78 [8]) | Reduction in APEC lesions severity, Heart (%) (Rif^r APEC O78 [8]) | Reduction in APEC lesions severity, Liver (%) (Rif^r APEC O78 [8]) | Reduction in APEC lesions severity, Lung (%) (Rif^r APEC O78 [8]) | larval death (Rif^r APEC O78 [9]) | expression of fliP [7] | further results
COC(=S)NN=Cc1cc(C)ccc1O [C4, methyl N′-{2-hydroxy-5-methylbenzylidene)hydrazonethiocarbonate] | 63% | 58% | 75% | 0% | 60% | 46% | 54% | 12% | down-regulated | down-regulated | 76% | – | – | – | – | – | – | – | – | – | Inhibition % of AI-2 activity ([6]; APEC O109, 100 µM): 67%; expression of iucD [7]: down-regulated; expression of pfs [7]: up-regulated
O=[N+]([O-])c1cccc(S(=O)(=O)Nc2ccc(Br)cc2)c1 [C6, N-(4-bromophenyl)-3-nitrobenzenesulfonamide] | – | – | – | – | – | – | – | 27% | down-regulated | down-regulated | – | did not reduce | 0.7-1.3 | 66.7% | 53.3% | 43.8% | 54.5% | 66.7% | no larval death | down-regulated | inhibition at 100 µM (AI-2 activity of APEC O1; Escherichia coli, read-out: Inhibition % of AI-2 activity, APEC O1, 100 µM): ≥ 75%; inhibition at 100 µM [2, 10]: 92%; inhibition at 100 µM (AI-2 activity of APEC O8; Escherichia coli, read-out: Inhibition % of AI-2 activity, APEC O8, 100 µM): ≥ 75%; inhibition at 100 µM ([5]; Escherichia coli, read-out: Inhibition % of AI-2 activity, APEC O18, 100 µM): ≥ 75%; clearance of intracellular APEC (APEC O2 in HD-11 cells): 100%; reduction of intracellular survival (APEC O2 in HD-11 cells; vs DMSO): 3.3 logs; inhibition at 100 µM [6, 10]: 60%; expression of fpr [7]: down-regulated; expression of murD [7]: down-regulated; inhibition at 100 µM (AI-2 activity of APEC O2; [10]): 93%
CCc1ccccc1Nc1nc(-c2c(C)nc3ccccn23)cs1 [C8, N-{2-ethyphenyl)-4-(2-methylimidazo[1,2-a]pyridin-3-yl)-1.3-thiazol-2-amine] | 41% | 44% | 98% | 18% | 57% | 25% | 54% | 2% | – | – | 94% | 50% | 1.0-2.0 | 33.3% | 66.7% | 75% | 75% | 83.3% | no larval death | down-regulated | reduction of bacterial load in internal organs (Rif^r APEC O78 [8]; liver, lung, heart, and kidney, vs DMSO control, 'up to'): 2.2-3.1 log CFU/g; clearance of APEC in live larvae (Rif^r APEC O78 [9]; 72 h): 100%
